Results from BindingDB's records for patent US20250320234 (Pretzel Therapeutics, 2025).

Molecular target: T1, Lon protease homolog, mitochondrial (Homo sapiens, UniProt P36776)
T1 sequence (P36776 whole entry): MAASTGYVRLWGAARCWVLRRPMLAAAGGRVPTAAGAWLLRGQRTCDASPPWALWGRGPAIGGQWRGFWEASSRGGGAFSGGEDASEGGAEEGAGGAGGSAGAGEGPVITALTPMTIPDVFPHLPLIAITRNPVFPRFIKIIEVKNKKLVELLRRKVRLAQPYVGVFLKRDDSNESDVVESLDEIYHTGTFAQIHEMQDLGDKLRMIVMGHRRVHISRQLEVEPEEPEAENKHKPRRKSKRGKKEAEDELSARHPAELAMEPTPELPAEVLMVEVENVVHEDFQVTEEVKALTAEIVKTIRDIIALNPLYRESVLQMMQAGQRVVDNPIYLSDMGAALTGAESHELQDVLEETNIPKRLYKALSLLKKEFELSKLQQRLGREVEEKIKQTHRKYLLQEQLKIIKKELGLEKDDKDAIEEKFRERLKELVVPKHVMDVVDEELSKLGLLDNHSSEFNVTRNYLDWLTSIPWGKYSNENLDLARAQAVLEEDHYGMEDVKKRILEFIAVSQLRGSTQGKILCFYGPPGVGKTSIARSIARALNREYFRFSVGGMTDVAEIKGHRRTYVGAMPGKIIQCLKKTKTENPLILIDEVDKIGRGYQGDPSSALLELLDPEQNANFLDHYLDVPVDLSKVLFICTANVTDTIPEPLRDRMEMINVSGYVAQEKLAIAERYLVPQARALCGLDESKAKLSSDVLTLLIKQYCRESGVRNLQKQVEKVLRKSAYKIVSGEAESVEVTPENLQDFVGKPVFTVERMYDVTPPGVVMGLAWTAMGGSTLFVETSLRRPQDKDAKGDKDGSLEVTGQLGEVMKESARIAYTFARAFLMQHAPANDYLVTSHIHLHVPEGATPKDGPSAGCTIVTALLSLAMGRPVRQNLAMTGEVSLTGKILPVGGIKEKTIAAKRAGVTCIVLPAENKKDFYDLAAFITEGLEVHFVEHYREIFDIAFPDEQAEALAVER
Assay: Biological/Biochemical Evaluation
Procedure: In this Example, LONP1 (NM_004793.4) activity was measured by a FRET-based assay for protease activity using a fluorogenic peptide DabcylYRGIT(2Abu)SORQK(5-FAM) (Cambridge Research Biochemicals) as substrate. LONP1 activity is followed by an increase in fluorescence signal due to the degradation of the peptide. Inhibition of LONP1 protease activity by an inhibitor compound of the disclosure elicits a decrease in the fluorescent signal. The assay is performed in a 384-well plate (Greiner, cat. #781076) using the following reagents and conditions: substrate (3 μM) was incubated for 1 hour at 37° C. in the presence of LONP1 (15 nM as monomer), 25 mM Tris pH 8.0, 10 mM MgCl2, 0.03 mg/mL […], 0.5 mM DTT, 0.0003% Tween-20, 10 mM NaCl, 0.06 mM ATP and 0.5 mM EGTA in a 15 μL final volume. The LONP1-containing mix (10 μL) was incubated with the test compound for 15 min at 37° C. before adding the peptide-containing mix (5 μL). Solutions were dispensed using a small cassette-Multidrop Combi (Thermo Scientific). Fluorescence was measured using a PheraStar plate reader (BMG Labtech) FI-FRET EX 485 nm Em 520 nm.

| SMILES | IC50 |
| --- | --- |
| COC[C@@H](NC(=O)c1cnccn1)C(=O)N[C@@H](CCOc1ccc(Cl)cc1)B(O)O [US20250320234, Compound 21] | < 50 nM |
| COC[C@@H](NC(=O)c1cnccn1)C(=O)N[C@@](C)(CCCc1ccccc1)B(O)O [US20250320234, Compound 22] | > 5000 nM |
| COC[C@@H](NC(=O)c1cnccn1)C(=O)N[C@@H](CCOc1ccc(F)cc1)B(O)O [US20250320234, Compound 23] | < 50 nM |
| COC[C@@H](NC(=O)c1cnccn1)C(=O)N[C@@H](CCOc1ccc(Cl)cc1F)B(O)O [US20250320234, Compound 24] | < 50 nM |
| COC[C@@H](NC(=O)c1cnccn1)C(=O)N[C@@H](CCOc1ccc(Cl)c(F)c1)B(O)O [US20250320234, Compound 25] | < 50 nM |
| COC[C@@H](NC(=O)c1cnccn1)C(=O)N[C@H](CCOc1ccc(Cl)cc1C)B(O)O [US20250320234, Compound 28] | > 5000 nM |
| COC[C@@H](NC(=O)N1CCOCC1)C(=O)N[C@@H](CCCc1ccccc1)B(O)O [US20250320234, Compound 31] | < 50 nM |
| COC[C@@H](NC(=O)c1cnccn1)C(=O)N[C@@H](CCCc1ccc(F)cc1)B(O)O [US20250320234, Compound 32] | < 50 nM |
| O=C(N[C@H](CSc1ccccc1)C(=O)N[C@@H](CCCc1ccccc1)B(O)O)c1cnccn1 [US20250320234, Compound 34] | < 50 nM |
| CN(C)S(=O)(=O)C[C@H](NC(=O)c1cnccn1)C(=O)N[C@@H](CCCc1ccccc1)B(O)O [US20250320234, Compound 36] | < 50 nM |
| COC[C@@H](NC(=O)c1cccc(C)n1)C(=O)N[C@@H](CCOc1ccccc1)B(O)O [US20250320234, Compound 42] | < 50 nM |
| COC[C@@H](NC(=O)c1ccccn1)C(=O)N[C@@H](CCOc1ccccc1)B(O)O [US20250320234, Compound 43] | < 50 nM |
| COC[C@@H](NC(=O)c1cncc(C)c1)C(=O)N[C@@H](CCOc1ccccc1)B(O)O [US20250320234, Compound 44] | < 50 nM |
| COC[C@@H](NC(=O)c1ccc(Cl)cc1)C(=O)N[C@@H](CCCc1ccccc1)B(O)O [US20250320234, Compound 51] | < 50 nM |
| COC[C@@H](NC(=O)c1cncnc1)C(=O)N[C@@H](CCCc1ccccc1)B(O)O [US20250320234, Compound 52] | < 50 nM |
| COC[C@@H](NC(=O)c1cccc(Cl)c1)C(=O)N[C@@H](CCCc1ccccc1)B(O)O [US20250320234, Compound 54] | < 50 nM |
| COC[C@@H](NC(=O)c1cc(Cl)ccc1Cl)C(=O)N[C@@H](CCCc1ccccc1)B(O)O [US20250320234, Compound 56] | < 50 nM |
| COC[C@@H](NC(=O)c1ccccc1Cl)C(=O)N[C@@H](CCCc1ccccc1)B(O)O [US20250320234, Compound 57] | < 50 nM |

Now from value to compound:

| IC50 | SMILES |
| --- | --- |
| < 50 nM | COC[C@@H](NC(=O)c1cnccn1)C(=O)N[C@@H](CCCc1ccc(OC)cc1)B(O)O [US20250320234, Compound 5] |
| < 50 nM | CO[C@@H](C)[C@@H](NC(=O)c1cnccn1)C(=O)N[C@@H](CCCc1ccccc1)B(O)O [US20250320234, Compound 6] |
| < 50 nM | COC[C@@H](NC(=O)[C@@H]1CCC(=O)N1)C(=O)N[C@@H](CCCc1ccccc1)B(O)O [US20250320234, Compound 7] |
| < 50 nM | COC[C@@H](NC(=O)c1ccccn1)C(=O)N[C@@H](CCCc1ccccc1)B(O)O [US20250320234, Compound 9] |
| < 50 nM | COC[C@@H](NC(=O)c1cccc(C)n1)C(=O)N[C@@H](CCCc1ccccc1)B(O)O [US20250320234, Compound 10] |
| < 50 nM | O=C(N[C@H](COCc1ccccc1)C(=O)N[C@@H](CCCc1ccccc1)B(O)O)c1cnccn1 [US20250320234, Compound 11] |
| < 50 nM | COC[C@@H](NC(=O)c1cnccn1)C(=O)N[C@@H](CCCc1ccc(Cl)cc1)B(O)O [US20250320234, Compound 12] |
| < 50 nM | COC[C@@H](NC(=O)c1cnccn1)C(=O)N[C@@H](CCOc1ccccc1)B(O)O [US20250320234, Compound 14] |
| < 50 nM | O=C(N[C@H](COC1CC1)C(=O)N[C@@H](CCCc1ccccc1)B(O)O)c1cnccn1 [US20250320234, Compound 20] |
